From patent US12631620B2, “Methods of generating organoids for high throughput screening of drugs” (Yissum Research Development Company of the Hebrew …, priority 2019, dated 2026)
Where “and” joins values, the source holds several entries; their conditions need not be identical. Identical values can stand only once.

Tests used:
[1] = cited from earlier work
E6/E7^LOW hepatocytes = settings: flux balance analysis, below threshold of cellular damage; Valproate sustained, Stavudine transient
Procedure: According to some embodiments of the invention there is a sensor-integrated liver on chip array in which oxygen is monitored using two-frequency phase modulation of tissue-embedded phosphorescent microprobes, while glucose, lactate and temperature are measured in real time using microfluidic electrochemical sensors. Such a microphysiological platform permits the calculation of dynamic changes in metabolic fluxes around central carbon metabolism, producing a unique metabolic fingerprint of the liver's response to stimuli.

HepG2/C3A organoids [2] = assay: Real-time oxygen uptake toxicity (TC50, time to onset, lowest exposure level) in differentiated HepG2/C3A organoids; type: cell-based, human; settings: for TC50: oxygen uptake; for lowest exposure level (LEL): horizontal asymptote, onset of damage at infinite time
Procedure: A suspension of HepG2/C3A cells and CPOx-50-RuP beads (Colibri Photonics, Germany) were suspended in 2.5 mg/ml rat tail collagen type I (Corning, USA) at a cell density of 7×10^5 cells/μl. A volume of 1.1 μl of the gel-imbedded mixture was injected into each microwell and left to form spontaneously until their metabolic activity stabilized around day 4.
Fifty-micrometer-diameter polystyrene microbeads were loaded with ruthenium-phenanthroline-based phosphorescence dye (CPOx-50-RuP). […] Oxygen acts as a quencher, leading to a decrease in decay time and signal intensity with increasing concentration. The present inventors chose to measure decay time, rather than signal intensity, as it is not sensitive to changes in probe concentration or excitation intensity over the course of the experiment. The signal was measured using the OPAL system (Colibri Photonics, Germany) that comprises of a control module, 532 nm LED excitation source, and a photomultiplier (PMT) detector mounted on the ocular of an IX81 Olympus microscope (Olympus, Japan). A filter cube with 531/40 (Ex), 555, 607/70 (Em) was inserted in the optical light path during measurements. To accurately measure decay time, the present inventors chose phase modulation in which sinusoidal amplitude-modulated light is shifted in phase due to oxygen quenching. To overcome the superposition of in-phase background fluorescence that alters the phase of the detected signal, the present inventors used a novel 53.5 and 31.3 kHz two-frequency phase modulation that allowed to screen out the interference [Schmalzlin E., et al., 2005. Biophysical journal, 89: 1339-1345; Papkovsky, D. B. et al., 2004. Methods in enzymology, 381, 715-735; Ast, C., et al., 2012. Sensors (Basel), 12: 7015-7032; Engelhard, S., et al., 2006. Analytical and bioanalytical chemistry, 384: 1107-1112; Prill, D. et al., 2016, Archives of toxicology, 90: 1181-1191]. Measurements were carried out by averaging five consecutive 4-s exposures. Measurements were taken every 15 minutes. Under similar conditions, 28 days of measurement of organoids was done with no apparent phototoxicity, signal drift, or relevant loss of signal intensity (Schmalzlin E., et al., 2005. Biophysical journal, 89: 1339-1345). Assessment of Cellular Toxicity and Time to Onset
Organoids were exposed to different concentrations of compounds dissolved in culture medium. Cell viability was determined by oxygen uptake following 24 hours of exposure unless otherwise noted. TC50 concentrations were determined using MATLAB by sigmoidal curve fitting (Wenner, M. M. et al., 2011, J Appl Physiol (1985), 111: 1703-1709; Prentice, R. L. et al., 1976, Biometrics, 32: 761-768). Time to onset was analyzed by MATLAB based on LPF and trend assessment.
To find the asymptotic concentration for which damage occurs only at infinite exposure time, the present inventors used a previously developed model for accumulative drug exposure (El-Kareh et al., 2000. Neoplasia, 2: 325-338; Currie, G. M. 2018. J Nucl Med Technol, DOI: 10.2967/jnmt.117.199588). The model is based on the steady-state dynamics of flux accumulation, using a linear first-order approximation of the cell membrane. The flux behavior is described by
where J(C) is the concentration dependent flux, Jmin is the minimal flux that will cause an effect, t is time of exposure and |τ is a drug-cell specific constant accounting reaction dynamics (Gowrishankar et al., 2003. Proceedings of the National Academy of Sciences of the United States of America, 100: 3203-3208; Kotnik T. et al., 2000. IEEE Trans Biomed Eng, 47: 1074-1081). In the present case, t is the Time to Onset (TTO) of damage creating a bi-asymptotic behavior. This adapted model is used to describe lowest exposure level (LEL) under first order, steady state assumptions, as
Real-time oxygen measurements were performed optically using on-chip lifetime-based luminescence quenching (LBLQ). […]

HepG2/C3A organoids [3] = assay: Neutral lipid and phospholipid staining of HepG2/C3A organoids on chip; type: cell-based, human; settings: p<0.001, n=9
[4] = system: E6/E7^LOW human hepatocytes; assay: Steatosis and phospholipidosis, HCS LipidTOX detection kit, hepatocyte cultures; type: cell-based
Procedure: Quantification of Apoptotic index was performed using DeadEnd™ fluorometric TUNEL System (Promega) according to manufacturer directions. Briefly, cells were treated with TC20 concentrations of compounds dissolved in culture medium for 24 hours, and subsequently fixed in 4% Paraformaldehyde (PFA). Cells were then permeabilized and exposed to fluorescein-12-dUTP and terminal deoxynucleotidyl transferase (TdT). The reaction was subsequently stopped and the cells counterstained with 1 μg/mL Hoechst 33258. Apoptotic cells were positive for green fluorescence in the nucleus. Percentage apoptosis was defined as the number of TUNEL positive nuclei normalized to Hoechst 33258 positive nuclei. Quantification of Steatosis was performed using HCS LipidTOX™ Phospholipidosis and Steatosis Detection Kit (ThermoFisher). Briefly, differentiated cells were incubated with different concentrations of compounds dissolved in culture medium and 1× Phospholipidosis Detection Reagent for 48 hours, subsequently fixed in 4% PFA. Cells were then stained with 1× LipidTOX™ for 20 minutes and counterstained with 1 μg/mL Hoechst 33258. Staining intensity was normalized to number of Hoechst 33258 positive nuclei. Quantification of Bile Secretion was performed using 5(6)-carboxy-2′,7′-dichlorofluorescein diacetate (CDFDA) staining. Briefly, differentiated cells were incubated with different concentrations of compounds dissolved in culture medium for 24 hours. Cells were then treated with 10 μg/mL CDFDA and 1 μg/mL Hoechst 33342 for 30 minutes. Incubation medium was removed and cultures washed with ice-cold PBS containing calcium and magnesium. Staining intensity was normalized to number of Hoechst 33342 positive nuclei. Analysis excluded Intracellular CDFDA staining based on intensity and phase images. All quantifications were made in comparison to cells treated with melatonin as negative control.
Quantification of Apoptotic index was performed using DeadEnd™ fluorometric TUNEL System (Promega) according to manufacturer directions. Briefly, cells were treated with TC20 concentrations of compounds dissolved in culture medium for 24 hours, and subsequently fixed in 4% Paraformaldehyde (PFA). Cell were then permeabilized and exposed to fluorescein-12-dUTP and terminal deoxynucleotidyl transferase (TdT). The reaction was subsequently stopped and the cells counterstained with 1 μg/mL Hoechst 33258. Apoptotic cells were positive for green fluorescence in the nucleus. […] Quantification of Steatosis was performed using HCS LipidTOX™ Phospholipidosis and Steatosis Detection Kit (ThermoFisher). […] Quantification of Bile Secretion was performed using 5(6)-carboxy-2′,7′-dichlorofluorescein diacetate (CDFDA) staining. […] All quantifications were made in comparison to cells treated with melatonin as negative control.

In the case of `CCCC(CCC)C(=O)O` [Valproate, 2-n-propylpentanoic acid], the “patients with evidence of steatosis” value ([1]; abdominal ultrasound) is listed as 61%, the “patients with elevated liver enzymes” value ([1]; patients on therapy) is listed as “Over 40%” and the increase in lipogenesis (E6/E7^LOW hepatocytes) is listed as 15%. For the same compound, the TC50 (HepG2/C3A organoids [2]; at 24 hours) was 27 mM, the TC50 (HepG2/C3A organoids [2]; at 42 hours) was 14 mM and 14 ± 2 mM and the “Time to onset (TTO) of response” value (HepG2/C3A organoids [2]; dose-dependent range over concentrations tested) was 6 to 36 h. For the same compound, the “lowest exposure level (LEL)” value (HepG2/C3A organoids [2]; ± standard error) was 280 ± 97 µM, the “lowest exposure level (LEL)” value (HepG2/C3A organoids [2]; ± standard error of curve fit) was 280 ± 97 µM and the “TC50 plateau value as a function of time” value (HepG2/C3A organoids [2]; plateau of TC50 over time) was “around 5 mM”. The direct mitochondrial damage (HepG2/C3A organoids [2]; sub-toxic levels) was “no indication of direct mitochondrial damage”, the “increase in the amount of intracellular lipids” value (HepG2/C3A organoids [3]) was 4 fold and the phospholipidosis [4] was “Evidence of phospholipidosis was seen”. The neutral lipids ([4]; p<0.001, n=4) was “strong and significant increase”.
